Measurements taken from patent publication US10314307B2, “(S)-abscisic acid derivatives for improving plant stress tolerance” (Valent BioSciences Corporation, priority 2015, dated 2019).

Tests used:
Type in all cases: in vivo
soybean plants = test: Soybean drought tolerance (stomatal conductance)
Procedure: In this study, soybean plants were grown for 10 days under ambient lab temperature conditions and illumination of 150 umol m^2 s^−1 and a 16:8 photoperiod. At spraying, the primary leaves were fully expanded and the first trifoliate leaves were partially expanded. The plants were sprayed to dampness with solutions of water, S-ABA, 3′-methyl-(S)-abscisic acid, or 3′-propargyl-(S)-abscisic acid containing 0.025% (v/v) non-ionic surfactant. At times following spraying, the conductance of the primary leaves was measured using an AP4 porometer (Delta T Devices, Cambridge, UK) to evaluate the effect on stomatal conductance. A decrease in stomatal aperture, reflected in the conductance measures, is an immediate and direct effect of applied S-ABA. To simplify the data, the controls were always set to 100%. In Table 9, the effect of spray applications on the stomatal conductance was measured.

[1] = system: Tobacco plants cv. Xanthi-nc; test: Tobacco plants drought assay; settings: for Percent of plants recovered 3 days after re-watering: re-watered after 18 days of water withdrawal
Procedure: Tobacco plants cv. Xanthi-nc were grown for six weeks at 25° C. and were size matched into groups of four. Each plant group was drench-treated with 10 mL of water containing 0.5% DMSO (control), 0.3 mg, 1.0 mg or 3.0 mg/plant 3′-methyl-(S)-abscisic acid, or 0.3 mg, 1.0 mg or 3.0 mg/plant S-ABA, respectively. The plants were kept in the greenhouse and not watered, simulating drought conditions. After 18 days of water withdrawal, the plants in all treatment groups wilted. At that point, all the plants were watered again. The number of plants that wilted during each day of water withdrawal and the number of plants that recovered following the re-watering were recorded.

[2] = system: Cucumber plants cv. ‘Straight Eight’; test: Cucumber seedling chilling; parameters: key to New Growth Rating: 0 = No new growth; 1 = some new growth; 2 = new leaves; settings: for New Growth Rating / Percent Leaf Area Affected: foliar spray 100 mg/liter, 300 ug/plant, 96 hours at 4° C., rated after 48 hours recovery
Procedure: In these studies, 3′-methyl-(S)-abscisic acid was compared with (S)-abscisic acid on cucumber seedlings for prevention of chilling damage. Cucumber plants cv. ‘Straight Eight’ were grown for two weeks at 25° C. and were size matched into groups of three plants. Each group was sprayed with water+0.05% non-ionic surfactant (control), 100 ppm 3′-methyl-(S)-abscisic acid and surfactant, or 100 ppm S-ABA and surfactant until wet, respectively. For the spray solutions, 3′-methyl-(S)-abscisic acid was dissolved in 0.5% by volume DMSO in water. Following the foliar treatment, plants were held for 48 hours at room temperature, then subjected to 4° C. for 96 hours, and then returned to 25° C. After the plants had been allowed to recover from the chilling treatments for 48 hours, the plants were rated for percent leaf area affected and new growth.

crop plants = test: Mitigation of drought and chilling stress on crop plants (summary statement)
[3] = foliar spray 300 mg/l, 0.3 mg/plant
[4] = foliar spray 1000 mg/l, 1.0 mg/plant

| SMILES | Reduction in stomatal conductance at 1 day post spraying (soybean plants; 300 mg/l foliar spray) [%] | Percent Conductance (stomatal conductance, control = 100%), Day 1 (soybean plants; [3]) [%] | Percent Conductance (stomatal conductance, control = 100%), Day 2 (soybean plants; [3]) [%] | Percent Conductance (stomatal conductance, control = 100%), Day 5 (soybean plants; [3]) [%] | Percent Conductance (stomatal conductance, control = 100%), Day 6 (soybean plants; [3]) [%] | Percent Conductance (stomatal conductance, control = 100%), Day 7 (soybean plants; [3]) [%] | Percent of non-wilted plans on days after drench treatment and drought initiation, Day 8 ([1]; 0.3 mg/plant drench) [%] | Percent of non-wilted plans on days after drench treatment and drought initiation, Day 10 ([1]; 0.3 mg/plant drench) [%] | Percent of non-wilted plans on days after drench treatment and drought initiation, Day 12 ([1]; 0.3 mg/plant drench) [%] | Percent of non-wilted plans on days after drench treatment and drought initiation, Day 14 ([1]; 0.3 mg/plant drench) [%] | Percent of non-wilted plans on days after drench treatment and drought initiation, Day 16 ([1]; 0.3 mg/plant drench) [%] | Percent of non-wilted plans on days after drench treatment and drought initiation, Day 18 ([1]; 0.3 mg/plant drench) [%] | Percent of plants recovered 3 days after re-watering ([1]; 0.3 mg/plant drench) [%] | Percent of non-wilted plans on days after drench treatment and drought initiation, Day 8 ([1]; 1 mg/plant drench) [%] | Percent of non-wilted plans on days after drench treatment and drought initiation, Day 10 ([1]; 1 mg/plant drench) [%] | Percent of non-wilted plans on days after drench treatment and drought initiation, Day 12 ([1]; 1 mg/plant drench) [%] | Percent of non-wilted plans on days after drench treatment and drought initiation, Day 14 ([1]; 1 mg/plant drench) [%] | Percent of non-wilted plans on days after drench treatment and drought initiation, Day 16 ([1]; 1 mg/plant drench) [%] | Percent of non-wilted plans on days after drench treatment and drought initiation, Day 18 ([1]; 1 mg/plant drench) [%] | Percent of plants recovered 3 days after re-watering ([1]; 1 mg/plant drench) [%] | also measured |
| --- | --- | --- | --- | --- | --- | --- | --- | --- | --- | --- | --- | --- | --- | --- | --- | --- | --- | --- | --- | --- | --- |
| C#CCC1=C(C)[C@](O)(/C=C/C(C)=C\C(=O)O)C(C)(C)CC1=O [3′-propargyl-(S)-ABA, (2Z,4E)-5-((S)-1-hydroxy-2,6,6-trimethyl-4-oxo-3-(prop-2-yn-1-yl)cyclohex-2-en-1-yl)-3-methylpenta-2,4-dienoic acid] | 92 | 8 | 14 | 33 | 52 | 57 | – | – | – | – | – | – | – | – | – | – | – | – | – | – | – |
| CC1=CC(=O)CC(C)(C)[C@@]1(O)/C=C/C(C)=C/C(=O)O [S-ABA, (S)-abscisic acid] | 58 | 42 | 56 | 80 | 108 | 122 | 100 | 100 | 17 | 0 | 0 | 0 | 0 | 100 | 100 | 50 | 0 | 0 | 0 | 0 | Time of 50% recovery of the control conductance (soybean plants; 300 mg/l foliar spray): ≤ 2 days; Time of greater than 50% recovery of the control conductance (soybean plants; 1000 mg/l foliar spray): 5 days; Percent Conductance (stomatal conductance, control = 100%), Day 1 (soybean plants; [4]): 27%; Percent Conductance (stomatal conductance, control = 100%), Day 2 (soybean plants; [4]): 32%; Percent Conductance (stomatal conductance, control = 100%), Day 5 (soybean plants; [4]): 58%; Percent Conductance (stomatal conductance, control = 100%), Day 6 (soybean plants; [4]): 80%; Percent Conductance (stomatal conductance, control = 100%), Day 7 (soybean plants; [4]): 118%; Percent of non-wilted plans on days after drench treatment and drought initiation, Day 8 ([1]; 3 mg/plant drench): 100%; Percent of non-wilted plans on days after drench treatment and drought initiation, Day 10 ([1]; 3 mg/plant drench): 100%; Percent of non-wilted plans on days after drench treatment and drought initiation, Day 12 ([1]; 3 mg/plant drench): 67%; Percent of non-wilted plans on days after drench treatment and drought initiation, Day 14 ([1]; 3 mg/plant drench): 0%; Percent of non-wilted plans on days after drench treatment and drought initiation, Day 16 ([1]; 3 mg/plant drench): 0%; Percent of non-wilted plans on days after drench treatment and drought initiation, Day 18 ([1]; 3 mg/plant drench): 0%; Percent of plants recovered 3 days after re-watering ([1]; 3 mg/plant drench): 0%; Plants recovered once they were watered ([1]; all S-ABA doses (0.3, 1.0, 3.0 mg/plant)): none; New Growth Rating [2]: 1; Percent Leaf Area Affected [2]: 33.33% |
| CC1=C(C)[C@](O)(/C=C/C(C)=C\C(=O)O)C(C)(C)CC1=O [3′-methyl-(S)-ABA, (2Z,4E)-5-((S)-1-hydroxy-2,3,6,6-tetramethyl-4-oxocyclohex-2-en-1-yl)-3-methylpenta-2,4-dienoic acid] | 89 | 11 | 18 | 36 | 68 | 79 | 100 | 100 | 83 | 33 | 0 | 0 | 0 | 100 | 100 | 100 | 83 | 67 | 0 | 33 | Percent of non-wilted plans on days after drench treatment and drought initiation, Day 8 ([1]; 3 mg/plant drench): 100%; Percent of non-wilted plans on days after drench treatment and drought initiation, Day 10 ([1]; 3 mg/plant drench): 100%; Percent of non-wilted plans on days after drench treatment and drought initiation, Day 12 ([1]; 3 mg/plant drench): 100%; Percent of non-wilted plans on days after drench treatment and drought initiation, Day 14 ([1]; 3 mg/plant drench): 100%; Percent of non-wilted plans on days after drench treatment and drought initiation, Day 16 ([1]; 3 mg/plant drench): 83%; Percent of non-wilted plans on days after drench treatment and drought initiation, Day 18 ([1]; 3 mg/plant drench): 0%; Percent of plants recovered 3 days after re-watering ([1]; 3 mg/plant drench): 83%; Percent of plants recovered 3 days after re-watering ([1]; 3 mg/plant drench, listed as 3′-methyl-(S)-abscisic acid): 83%; Drought tolerance compared to the untreated control or the highest amount (3.0 mg) of S-ABA ([1]; lowest amount (0.3 mg)): superior drought tolerance; Mitigating chilling damage compared with S-ABA ([2]; 100 ppm foliar spray, chilling at 4° C.): more effective than S-ABA; New Growth Rating [2]: 2; Percent Leaf Area Affected [2]: 16.67%; Effectiveness relative to S-ABA when applied to crop plants to mitigate drought and chilling stress (crop plants): from about two to about ten times as effective as S-ABA |
